How the values were obtained:
human SPR [1] = molecular target: T1, human SPR (Homo sapiens (Human), UniProt P35270); experiment: Evaluation Example 1: Measurement of human SPR inhibitory activity (sepiapterin absorbance at 420 nm); type: biochemical; conditions: 240 minutes at room temperature
Experimental: Human SPR was prepared as described below. The full-length human SPR (1-261) cDNA was purchased from Eurofins Genomics as an artificially synthesized plasmid containing a DNA sequence optimized for the E. coli expression system so that the sequence of the expressed protein after transcription and translation matches the sequence described in UniprotKB (P35270).
Linearized insert and vector were prepared by PCR using primers designed for amplification of human SPR cDNA and primers designed to contain the thrombin recognition sequence of pET28a (Novagen) and a polyhistidine tag. Cloning was performed using In-Fusion (registered trademark) HD Cloning Kit (TaKaRa) to thereby construct a human SPR expression plasmid. The resultant human SPR expression plasmid was transformed into BL21 (DE3) competent cells (INVITROGEN).
The cells were inoculated into LB medium (1% triptone, 0.5% yeast extract, 1% sodium chloride) containing […] of kanamycin, and then precultured at 37° C. overnight. The precultured cells were inoculated into TB medium (1.2% triptone, 2.4% yeast extract, 9.4% dipotassium hydrogen phosphate, 2.2% potassium dihydrogen phosphate, 0.8% glycerin) containing […] of kanamycin, and the cultured at 37° C., to thereby induce SPR expression with 0.5 mM IPTG for four hours. After the induction, the cells were collected by centrifugation at 6,000 G for 30 minutes and washed with PBS, and the washing was discarded. The washed cells were suspended in buffer solution A (20 mM MES, pH 6.5, 100 mM sodium chloride, 1 mM DTT, 5 mM imidazole). Subsequently, the cell suspension was subjected to ultrasonic treatment to thereby homogenize the cells. The cell homogenate was clarified by centrifugation at 30,000 G for 60 minutes and then filtered with a […]. The filtrate was allowed to pass through HisTrapFF 5 mL column (GE Healthcare). The resin was washed with buffer A, and then gradient elution was performed with buffer B (20 mM MES, pH 6.5, 100 mM sodium chloride, 1 mM DTT, 500 mM imidazole). Thrombin was added to a fraction containing the SPR protein, and the mixture was dialyzed in buffer A overnight, to thereby cleave the tag. After removal of the thrombin by with Benzamidine Sepharose 4 FF (GE Healthcare), the resultant product was allowed to pass through the HisTrapFF 5 mL column, to thereby remove the tag, followed by concentration with Amicon Ultra 10,000 NMWL (Merck Millipore). The concentrate was purified by gel filtration using HiLoad 16/60 Superdex 75 pg (GE Healthcare) equilibrated with buffer C (20 mM MES, pH 6.5, 100 mM sodium chloride, 1 mM DTT). The fraction containing SPR protein was concentrated and then cryopreserved at −80° C.
Human SPR inhibitory activity was measured by using a 384-well low adsorption clear plate (Greiner) with buffer D containing 100 mM Tris-HCl (pH 7.5) (Thermo Fisher Scientific) and 0.01% bovine serum albumin (Sigma). A compound was diluted with DMSO to a concentration of 1 mM, and a 1 μL aliquot of the preparation was diluted with 250 μL of buffer D. The thus-diluted compound was dispensed into the 384-well plate at […]. Thereafter, human SPR was diluted with buffer D to 200 ng/mL and then dispensed into the 384-well plate at 20 μL/well. Subsequently, 40 μL of ultrapure water containing 120 μM Sepiapterin (WuXi AppTec) and 120 μM NADPH (Nacalai) was added to each well, and mixed with a vortex mixer, to thereby initiate the reaction. The reaction mixture was incubated at room temperature for 240 minutes, and the reaction was terminated by addition of 10 μL of ultrapure water containing 2% formic acid (Nacalai). In order to determine the amount of sepiapterin after termination of the reaction, the absorbance at 420 nm was measured by applying the 384-well plate to EnSpire multimode plate reader (Perkin Elmer). The percent inhibition (%) of human SPR by the test compound was calculated by the following formula. […]

human SPR [2] = molecular target: T1, human SPR; experiment: Evaluation Example 2: Measurement of human SPR inhibitory activity (seven concentrations, sepiapterin absorbance at 420 nm); type: biochemical; conditions: Evaluation Example 2, seven concentrations 0.14 nM to 100 nM, 240 minutes at room temperature, read-out: IC50
In short: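 His-tagged full-length human SPR (1-261) was expressed in E. coli and the tag removed. Enzyme at 150 ng/mL in 100 mM Tris-HCl pH 7.5/0.01% BSA was mixed with compound (0.14–100 nM, seven points), 120 μM sepiapterin and 160 μM NADPH, both as added-solution concentrations. After 240 min at room temperature, remaining sepiapterin was read at 420 nm to give percent inhibition.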

T1 sequence (P35270 whole entry): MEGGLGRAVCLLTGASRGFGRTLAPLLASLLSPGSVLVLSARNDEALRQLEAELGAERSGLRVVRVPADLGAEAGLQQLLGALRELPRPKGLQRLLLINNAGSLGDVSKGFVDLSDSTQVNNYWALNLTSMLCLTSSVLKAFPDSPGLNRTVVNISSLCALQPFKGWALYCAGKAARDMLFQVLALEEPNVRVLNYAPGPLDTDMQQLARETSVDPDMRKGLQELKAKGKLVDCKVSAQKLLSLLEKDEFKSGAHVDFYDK

| Compound | IC50 (human SPR [1]) [nM] | IC50 (human SPR [2]) [nM] |
| --- | --- | --- |
| CC(C)Cn1c(=O)c(C(=O)NC2CC2)c(O)n2ncc(/C=C/C(=O)N3CCOCC3)c12 [Synthesis Example 10, (E)-N-Cyclopropyl-7-hydroxy-4-isobutyl-3-(3-morpholino-3-oxoprop-1-en-1-yl)-5-oxo-4,5-dihydropyrazolo[1,5-a]pyrimidine-6-carboxamide] | < 1000 | 0.68 |
| CC(C)(C)Cn1c(=O)c(C(=O)NC2CC2)c(O)n2nc(Nc3ccncn3)cc12 [Synthesis Example 12, N-Cyclopropyl-7-hydroxy-4-neopentyl-5-oxo-2-(pyrimidin-4-ylamino)-4,5-dihydropyrazolo[1,5-a]pyrimidine-6-carboxamide] | < 1000 | 1.41 |
| CC(C)(C)Cn1c(=O)c(C(=O)NC2CC2)c(O)n2nc(Nc3cnccn3)cc12 [Synthesis Example 13, N-Cyclopropyl-7-hydroxy-4-neopentyl-5-oxo-2-(pyrazin-2-ylamino)-4,5-dihydropyrazolo[1,5-a]pyrimidine-6-carboxamide] | < 1000 | 1.43 |
| CC(C)(C)Cn1c(=O)c(C(=O)NC2CC2)c(O)n2nc(-c3cccnc3N)cc12 [Synthesis Example 14, 2-(2-Aminopyridin-3-yl)-N-cyclopropyl-7-hydroxy-4-neopentyl-5-oxo-4,5-dihydropyrazolo[1,5-a]pyrimidine-6-carboxamide] | < 1000 | 1.19 |
| CC(C)(C)Cn1c(=O)c(C(=O)NC2CC2)c(O)n2nc(Nc3cnc(C(F)(F)F)cn3)cc12 [Synthesis Example 15, N-Cyclopropyl-7-hydroxy-4-neopentyl-5-oxo-2-((5-(trifluoromethyl)pyrazin-2-yl)amino)-4,5-dihydropyrazolo[1,5-a]pyrimidine-6-carboxamide] | < 1000 | 1.61 |
| COc1cnc(Nc2cc3n(CC(C)(C)C)c(=O)c(C(=O)NC4CC4)c(O)n3n2)cn1 [Synthesis Example 16, N-Cyclopropyl-7-hydroxy-2-((5-methoxypyrazin-2-yl)amino)-4-neopentyl-5-oxo-4,5-dihydropyrazolo[1,5-a]pyrimidine-6-carboxamide] | < 1000 | 1.96 |
| COc1cncc(Nc2cc3n(CC(C)(C)C)c(=O)c(C(=O)NC4CC4)c(O)n3n2)n1 [Synthesis Example 17, N-Cyclopropyl-7-hydroxy-2-((6-methoxypyrazin-2-yl)amino)-4-neopentyl-5-oxo-4,5-dihydropyrazolo[1,5-a]pyrimidine-6-carboxamide] | < 1000 | 0.76 |
| CC(C)(C)Cn1c(=O)c(C(=O)NC2CC2)c(O)n2nc(N)cc12 [Synthesis Example 18, 2-Amino-N-cyclopropyl-7-hydroxy-4-neopentyl-5-oxo-4,5-dihydropyrazolo[1,5-a]pyrimidine-6-carboxamide] | < 1000 | 0.89 |
| CC(C)(C)Cn1c(=O)c(C(=O)NC2CC2)c(O)n2nc(Nc3cnc(C(N)=O)cn3)cc12 [Synthesis Example 21, 2-((5-Carbamoylpyrazin-2-yl)amino)-N-cyclopropyl-7-hydroxy-4-neopentyl-5-oxo-4,5-dihydropyrazolo[1,5-a]pyrimidine-6-carboxamide] | < 1000 | 0.96 |
| CC1(Cn2c(=O)c(C(=O)NC3CC3)c(O)n3nc(Br)cc23)CCOCC1 [Synthesis Example 27, 2-Bromo-N-cyclopropyl-7-hydroxy-4-((4-methyltetrahydro-2H-pyran-4-yl)methyl)-5-oxo-4,5-dihydropyrazolo[1,5-a]pyrimidine-6-carboxamide] | < 1000 |  |
| CC1(Cn2c(=O)c(C(=O)NC3CC3)c(O)n3nc(Nc4cnccn4)cc23)CCOCC1 [Synthesis Example 28, N-Cyclopropyl-7-hydroxy-4-((4-methyltetrahydro-2H-pyran-4-yl)methyl)-5-oxo-2-(pyrazin-2-ylamino)-4,5-dihydropyrazolo[1,5-a]pyrimidine-6-carboxamide] | < 1000 |  |
| CC1(Cn2c(=O)c(C(=O)NC3CC3)c(O)n3nc(-c4cccnc4N)cc23)CCOCC1 [Synthesis Example 29, 2-(2-Aminopyridin-3-yl)-N-cyclopropyl-7-hydroxy-4-((4-methyltetrahydro-2H-pyran-4-yl)methyl)-5-oxo-4,5-dihydropyrazolo[1,5-a]pyrimidine-6-carboxamide] | < 1000 |  |
| CC1(Cn2c(=O)c(C(=O)NC3CCC3)c(O)n3nc(Br)cc23)CCOCC1 [Synthesis Example 30, 2-Bromo-N-cyclobutyl-7-hydroxy-4-((4-methyltetrahydro-2H-pyran-4-yl)methyl)-5-oxo-4,5-dihydropyrazolo[1,5-a]pyrimidine-6-carboxamide] | < 1000 |  |
| CC1(Cn2c(=O)c(C(=O)NC3CCC3)c(O)n3nc(Nc4cnccn4)cc23)CCOCC1 [Synthesis Example 31, N-Cyclobutyl-7-hydroxy-4-((4-methyltetrahydro-2H-pyran-4-yl)methyl)-5-oxo-2-(pyrazin-2-ylamino)-4,5-dihydropyrazolo[1,5-a]pyrimidine-6-carboxamide] | < 1000 |  |
| O=C(NC1CC1)c1c(O)n2ncc(C3=CCOCC3)c2n(CC2CCOCC2)c1=O [Synthesis Example 35, N-Cyclopropyl-3-(3,6-dihydro-2H-pyran-4-yl)-7-hydroxy-5-oxo-4-((tetrahydro-2H-pyran-4-yl)methyl)-4,5-dihydropyrazolo[1,5-a]pyrimidine-6-carboxamide] | < 1000 |  |
| CC(C)(C)Cn1c(=O)c(C(=O)NC2CC2)c(O)n2nc(C(=O)Nc3ccccn3)cc12 [Synthesis Example 41, N6-Cyclopropyl-7-hydroxy-4-neopentyl-5-oxo-N2-(pyridin-2-yl)-4,5-dihydropyrazolo[1,5-a]pyrimidine-2,6-dicarboxamide] | < 1000 |  |
| CC(C)Cn1c(=O)c(C(=O)NC2CC2)c(O)n2ncc(Br)c12 [Synthesis Example 104, 3-Bromo-N-cyclopropyl-7-hydroxy-4-isobutyl-5-oxo-4,5-dihydropyrazolo[1,5-a]pyrimidine-6-carboxamide] | < 1000 |  |
| O=C(NC1CC1)c1c(O)n2nc(C3CC3)cc2n(CC2CCOCC2)c1=O [Synthesis Example 135, N,2-Dicyclopropyl-7-hydroxy-5-oxo-4-((tetrahydro-2H-pyran-4-yl)methyl)-4,5-dihydropyrazolo[1,5-a]pyrimidine-6-carboxamide] | < 1000 |  |
| CC(C)(C)Cn1c(=O)c(C(=O)NC2CC2)c(O)n2ncc(/C=C/C(=O)N3CCOCC3)c12 [Synthesis Example 169, (E)-N-Cyclopropyl-7-hydroxy-3-(3-morpholino-3-oxoprop-1-en-1-yl)-4-neopentyl-5-oxo-4,5-dihydropyrazolo[1,5-a]pyrimidine-6-carboxamide] | < 1000 |  |
| COc1ccnc(Nc2cc3n(CC(C)(C)C)c(=O)c(C(=O)NC4CC4)c(O)n3n2)c1 [Synthesis Example 195, N-Cyclopropyl-7-hydroxy-2-((4-methoxypyridin-2-yl)amino)-4-neopentyl-5-oxo-4,5-dihydropyrazolo[1,5-a]pyrimidine-6-carboxamide] | < 1000 |  |

Reference: patent US20240092784A1, “CONDENSED HETEROCYCLIC COMPOUND” (NISSAN CHEMICAL CORPORATION, priority 2020, published 2024)
